In patent US20190231748A1, “COMPOSITION FOR VAGINA AND ANTIMICROBIAL AGENT COMBINATION FOR USE IN PREPARING COMPOSITION FOR VAGINA” (Shenzhen Eulikan Biotechnology Co., Ltd., priority 2016, published 2019):

What was measured:
Format in all cases: cell-based
Lactococcus lactis = assay: Gram-stained smear of co-culture gel, Gram-positive cocci (G+c); settings: for Smear G^+c: cultivated 32 hours
Source text: (§1) 2.1 Experimental strains: one Lactococcus lactis strain and one Lactobacillus jensenii strain, both were clinical isolates.
(§2) The pH value was adjusted to 5.0.
(§3) 2.4 Experimental procedure: the test gel tubes containing different concentrations of antimicrobial agents, as shown in Tables 1 to 6 were inoculated with 100 microliters of Lactobacillus lactis suspension and 100 microliters of Lactobacillus jensenii suspension at the same time. The turbidities of both suspensions were 0.5 MCF. Then the tubes were cultivated at 37° C. and under 5 percent CO2 for 32 hours. Then the changes of the pH values of gels were tested. The gels were smeared, Gram stained, and microscopically examined for the morphology and quantity of bacteria.

Lactobacillus jensenii = assay: Gram-stained smear of co-culture gel, Gram-positive rods (G+b); settings: cultivated 32 hours
Source text: as §1, §2, §3

[1] = system: Lactococcus lactis and Lactobacillus jensenii; assay: pH of test gel after co-culture of Lactococcus lactis and Lactobacillus jensenii; settings: cultivated 32 hours
Source text: as §1, §2, §3

[2] = system: three strains of Staphylococcus aureus isolated from the vaginal secretion of patients with vaginitis; assay: Growth in enrichment broth (turbidity after 24 hours), clinical strains; parameters: key to growth of Staphylococcus aureus, Bacterial strain 1 / growth of Staphylococcus aureus, Bacterial strain 2 / growth of Staphylococcus aureus, Bacterial strain 3: +: means the growth of bacteria; −: means no growth of bacteria; settings: enrichment broth, 37° C. for 24 hours, turbidity
Source text: (§4) a. Experimental strains, three strains of Escherichia coli and three strains of Staphylococcus aureus, which were all isolated from the vaginal secretion of patients with vaginitis.
(§5) b. Enrichment broth, which contained 1 percent of yeast extract powder, 9 percent of sucrose, 0.025 percent of manganese sulfate (MnSO4.4H2O), 0.058 percent of magnesium sulfate (MgSO4.7H2O), and 0.9 percent of lactic acid, the pH value of the broth was adjusted to 4.8, and the enrichment broth was sterilized for later use;
(§6) (2). Experimental groups: the requirements for aseptic operation technique were strictly followed to prepare the sterile test tubes:
(§7) a. sodium benzoate group: each test tube contained 5 milliliters of enrichment broth, and was added in 0.05 percent (weight/volume) sodium benzoate;
(§8) b. 2-phenylethanol group: each test tube contained 5 milliliters of enrichment broth, and was added in 0.05 percent (weight/volume) of 2-phenylethanol;
(§9) c. sodium propionate group: each test tube contained 5 milliliters of enrichment broth, and was added in 0.25 percent (weight/volume) of sodium propionate;
(§10) d. “a group of the combinations of sodium benzoate and sodium propionate”: each test tube contained 5 milliliters of enrichment broth, and was added in 0.05 percent (weight/volume) of sodium benzoate and 0.25 percent (weight/volume) of sodium propionate;
(§11) e. “a group of the combinations of sodium benzoate and 2-phenylethanol”: each test tube contained 5 milliliters of enrichment broth, and was added in 0.05 percent (weight/volume) of sodium benzoate and 0.05 percent (weight/volume) of 2-phenylethanol;
(§12) f. “a group of the combinations of sodium propionate and 2-phenylethanol”: each test tube contained 5 milliliters of enrichment broth, and was added in 0.25 percent (weight/volume) of sodium propionate and 0.05 percent (weight/volume) of 2-phenylethanol;
(§13) g. “a group of the combinations of sodium benzoate, sodium propionate and 2-phenylethanol”: each test tube contained 5 milliliters of enrichment broth, and was added in 0.05 percent (weight/volume) of sodium benzoate, 0.25 percent (weight/volume) of sodium propionate, and 0.05 percent (weight/volume) of 2-phenylethanol;
(§14) h. positive control: one tube that contained 5 milliliters of enrichment broth without adding in any of the 2-phenylethanol, sodium benzoate, and sodium propionate, but inoculated the suspension of Escherichia coli or Staphylococcus aureus.
(§15) i. negative control: one tube that contained 5 milliliters of enrichment broth without adding in any of the 2-phenylethanol, sodium benzoate, and sodium propionate, and not inoculated the suspension of Escherichia coli or Staphylococcus aureus.
(§16) The requirements for aseptic operation technique were strictly followed to prepare the bacterial suspensions. The colonies of Escherichia coli and Staphylococcus aureus were diluted with physiological saline respectively to prepare bacterial suspension. The turbidities of the Escherichia coli suspension and the Staphylococcus aureus suspension were adjusted to 0.5 MCF (about 10^8 CFU/ml) by a turbidimeter. 1 milliliter of the 0.5 MCF bacterial suspensions were added into 9 milliliters of the enrichment broth respectively, so each bacterial solution was diluted for ten times to contain 10^7 CFU/ml of bacterial organisms.
(§17) The requirements for aseptic operation technique were strictly followed to take 100 microliters of the prepared bacterial suspensions respectively, and to add the bacterial suspensions into the aforesaid test tubes from a to h as well as positive control tube. No bacterial suspension was added into the negative control tube i.
(§18) The above tubes were cultured in a biochemical incubator at 37° C. for 24 hours, then turbidity changes of the test tube solutions were observed and recorded.
(§19) Remark: “+” means the growth of bacteria; “−” means no growth of bacteria.

[3] = system: three strains of Escherichia coli isolated from the vaginal secretion of patients with vaginitis; assay: as above; parameters: key to growth of Escherichia coli, Bacterial strain 1 / growth of Escherichia coli, Bacterial strain 2 / growth of Escherichia coli, Bacterial strain 3: +: means the growth of bacteria; −: means no growth of bacteria; settings: enrichment broth, 37° C. for 24 hours, turbidity
Source text: as §4, §5, §6, §7, §8, §9, §10, §11, §12, §13, §14, §15, §16, §17, §18, §19

[4] = system: nine strains of Candida albicans; assay: Growth of Candida in enrichment broth after 24 hours, clinical strains; parameters: key to growth of Candida albicans, strain 1 / growth of Candida albicans, strain 2 / growth of Candida albicans, strain 3 / growth of Candida albicans, strain 4 / growth of Candida albicans, strain 5 / growth of Candida albicans, strain 6 / growth of Candida albicans, strain 7 / growth of Candida albicans, strain 8 / growth of Candida albicans, strain 9: +: means the growth of organisms; −: means no growth of organisms; settings: enrichment broth, 37° C. for 24 hours
Source text: as §5, with “broth:” for “broth,”, “4.5,” for “4.8,”
(2) Experimental groups: the requirements of aseptic operation technique were strictly followed so to prepare the sterile test tubes;
a. sodium benzoate group: each test tube contained 5 milliliters enrichment broth, and was added in 0.025 percent (weight/volume) of sodium benzoate;
b. 2-phenylethanol group: each test tube contained 5 milliliters enrichment broth, and was added in 0.050 percent (weight/volume) of 2-phenylethanol;
c. sodium propionate group: each test tube contained 5 milliliters enrichment broth, and was added in 0.125 percent (weight/volume) of sodium propionate;
d. “a group of the combinations of sodium benzoate and sodium propionate”: each test tube contained 5 milliliters enrichment broth, and was added in 0.025 percent (weight/volume) of sodium benzoate and 0.125 percent (weight/volume) of sodium propionate;
e. “a group of the combinations of sodium benzoate and 2-phenylethanol”: each test tube contained 5 milliliters enrichment broth, and was added in 0.025 percent (weight/volume) of sodium benzoate and 0.050 percent (weight/volume) of 2-phenylethanol;
f. “a group of the combinations of sodium propionate and 2-phenylethanol”: each test tube contained 5 milliliters enrichment broth, and was added in 0.125 percent (weight/volume) of sodium propionate and 0.050 percent (weight/volume) of 2-phenylethanol;
g. “a group of the combinations of sodium benzoate, sodium propionate and 2-phenylethanol”: each test tube contained 5 milliliters enrichment broth, and was added in 0.025 percent (weight/volume) of sodium benzoate, 0.125 percent (weight/volume) of sodium propionate and 0.050 percent (weight/volume) of 2-phenylethanol;
h. positive control: the control tube of enrichment broth without adding in 2-phenylethanol, sodium benzoate, and sodium propionate; but inoculated the suspension of Candida albicans;
i. negative control: the control tube of enrichment broth without adding in 2-phenylethanol, sodium benzoate, and sodium propionate; and without inoculating Candida albicans;
The requirements for aseptic operation technique were strictly followed to prepare the suspension of organism. The colonies of each strain of Candida albicans organism were diluted with physiological saline respectively. The turbidities of the suspensions of Candida albicans organism were adjusted to 0.5 MCF (about 10^8 CFU/ml) by a turbidimeter. 1 milliliter of the 0.5 MCF organism suspension was added into 9 milliliters of enrichment broth. Each suspension was diluted for ten times to contain 10^7 CFU/ml of organisms.
the requirements for aseptic technique were strictly followed to take 100 microliters of the prepared organism suspension respectively and to add the suspension into the test tubes from a to h as well as the positive control tube. No organism suspension was added into the negative control tube i.
The above tubes were cultured in a biochemical incubator at 37° C. for 24 hours. Then the growth of Candida in each tube was observed and recorded.
Remark: “+” means the growth of organisms; “−” means no growth of organisms.

CC(=O)c1c([O-])cc(C)oc1=O.[Na+] [sodium dehydroacetate]
Smear G^+c (Lactococcus lactis; 0.005 % in test gel): G^+c++
inhibition effect on the growth of Lactococcus lactis (Lactococcus lactis; 0.005 to 0.035 percent): little inhibition effect
Smear G^+c (Lactococcus lactis; 0.010 % in test gel): G^+c++
Smear G^+c (Lactococcus lactis; 0.015 % in test gel): G^+c++
Smear G^+c (Lactococcus lactis; 0.020 % in test gel): G^+c++
Smear G^+c (Lactococcus lactis; 0.025 % in test gel): G^+c++
Smear G^+c (Lactococcus lactis; 0.030 % in test gel): G^+c++
Smear G^+c (Lactococcus lactis; 0.035 % in test gel): G^+c++
Smear G^+b (Lactobacillus jensenii; 0.005 % in test gel): G^+b+
Smear G^+b (Lactobacillus jensenii; 0.010 % in test gel): G^+b+
Smear G^+b (Lactobacillus jensenii; 0.015 % in test gel): G^+b+
Smear G^+b (Lactobacillus jensenii; 0.020 % in test gel): G^+b+
Smear G^+b (Lactobacillus jensenii; 0.025 % in test gel): G^+b+
Smear G^+b (Lactobacillus jensenii; 0.030 % in test gel): G^+b+
Smear G^+b (Lactobacillus jensenii; 0.035 % in test gel): G^+b+
pH value ([1]; 0.005 % in test gel): 3.8
pH value ([1]; 0.010 % in test gel): 3.8
pH value ([1]; 0.015 % in test gel): 3.8
pH value ([1]; 0.020 % in test gel): 3.8
pH value ([1]; 0.025 % in test gel): 3.8
pH value ([1]; 0.030 % in test gel): 3.8
pH value ([1]; 0.035 % in test gel): 3.8

CCC(=O)[O-].[Na+] [c. 0.25% sodium propionate]
growth of Staphylococcus aureus, Bacterial strain 1 ([2]; strain 1): +
growth of Staphylococcus aureus, Bacterial strain 2 ([2]; strain 2): +
growth of Staphylococcus aureus, Bacterial strain 3 ([2]; strain 3): +
growth of Escherichia coli, Bacterial strain 1 ([3]; strain 1): +
growth of Escherichia coli, Bacterial strain 2 ([3]; strain 2): +
growth of Escherichia coli, Bacterial strain 3 ([3]; strain 3): +

CCC(=O)[O-].[Na+] [f. 0.125% sodium propionate]
growth of Candida albicans, strain 1 ([4]; strain 1): +
growth of Candida albicans, strain 2 ([4]; strain 2): +
growth of Candida albicans, strain 3 ([4]; strain 3): −
growth of Candida albicans, strain 4 ([4]; strain 4): +
growth of Candida albicans, strain 5 ([4]; strain 5): +
growth of Candida albicans, strain 6 ([4]; strain 6): +
growth of Candida albicans, strain 7 ([4]; strain 7): −
growth of Candida albicans, strain 8 ([4]; strain 8): +
growth of Candida albicans, strain 9 ([4]; strain 9): −
